Test results from US20120028897A1, “METHODS AND COMPOSITIONS FOR THE TREATMENT OF FLUID RETENTION DISORDERS” (priority 2008, published 2012).
Where two headings read alike, the source gives them in different places. Bridges are numbered along the chain shown (N, C = ends). Where no end group is shown, it is not given here.

How the values were obtained:
[1] = 37° C., cited from earlier work
[2] = target: guanylate cyclase C (GC-C) receptor (UniProt P25092 24-1073, limits assumed); test: cell-based or functional assay
guanylate cyclase C (GC-C) receptor, sequence (P25092 24-1073 limits assumed): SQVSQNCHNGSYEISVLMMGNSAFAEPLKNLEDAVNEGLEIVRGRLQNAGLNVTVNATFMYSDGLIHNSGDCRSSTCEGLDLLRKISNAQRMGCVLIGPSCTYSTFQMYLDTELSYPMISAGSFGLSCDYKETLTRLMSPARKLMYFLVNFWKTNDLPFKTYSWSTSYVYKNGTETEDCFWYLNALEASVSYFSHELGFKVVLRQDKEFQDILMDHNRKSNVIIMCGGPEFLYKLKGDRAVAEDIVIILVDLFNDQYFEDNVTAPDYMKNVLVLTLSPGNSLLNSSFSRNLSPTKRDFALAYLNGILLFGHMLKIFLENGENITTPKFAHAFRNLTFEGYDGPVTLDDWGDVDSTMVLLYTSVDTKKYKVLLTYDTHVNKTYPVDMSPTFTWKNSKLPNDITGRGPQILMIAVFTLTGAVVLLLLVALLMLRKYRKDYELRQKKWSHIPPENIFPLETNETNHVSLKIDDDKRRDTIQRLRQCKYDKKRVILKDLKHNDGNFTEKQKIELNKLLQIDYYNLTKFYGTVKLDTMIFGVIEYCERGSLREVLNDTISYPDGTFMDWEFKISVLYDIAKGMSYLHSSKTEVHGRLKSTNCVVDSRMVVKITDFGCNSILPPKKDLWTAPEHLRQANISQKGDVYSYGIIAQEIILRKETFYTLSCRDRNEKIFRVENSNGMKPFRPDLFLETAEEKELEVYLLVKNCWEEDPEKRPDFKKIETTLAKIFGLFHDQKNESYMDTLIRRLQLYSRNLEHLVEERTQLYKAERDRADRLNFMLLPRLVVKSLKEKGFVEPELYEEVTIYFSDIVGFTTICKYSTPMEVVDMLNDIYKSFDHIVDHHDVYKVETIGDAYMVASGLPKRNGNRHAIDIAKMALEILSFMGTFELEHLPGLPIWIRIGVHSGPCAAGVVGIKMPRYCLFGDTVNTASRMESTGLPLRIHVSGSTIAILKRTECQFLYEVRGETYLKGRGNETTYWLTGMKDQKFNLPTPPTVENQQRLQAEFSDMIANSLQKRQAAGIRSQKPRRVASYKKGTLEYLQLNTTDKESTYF

Molecule	half life of each stereoisomer (A/B interconversion) [1]	half life of each stereoisomer (A/B interconversion) ([1]; listed as human Ugn)	cyclic GMP synthesis in T84 cells, potency against huUgnA [2]
CC(C)C[C@H](NC(=O)[C@@H]1CSSC[C@@H]2NC(=O)[C@H](CC(C)C)NC(=O)[C@H](CCC(=O)O)NC(=O)[C@@H](NC(=O)[C@H](CC(=O)O)NC(=O)[C@H](CC(=O)O)NC(=O)[C@@H](N)CC(N)=O)CSSC[C@H](NC(=O)[C@H](C)NC(=O)[C@H](C(C)C)NC(=O)[C@H](CC(N)=O)NC(=O)[C@H](C(C)C)NC2=O)C(=O)N[C@@H]([C@@H](C)O)C(=O)NCC(=O)N1)C(=O)O [huUgn, Asn Asp Asp Cys Glu Leu Cys Val Asn Val Ala Cys Thr Gly Cys Leu]	approximately 2 days	about 2 days	
NDDCELCVNVACTGCL (disulfide 4-12, 7-15) [Human UgnB (B isoform of human uroguanylin)]			> 100 fold less potent than huUgnA
